Measurements published in patent US10457655B2, “Compounds and compositions for inhibition of FASN” (FORMA Therapeutics, Inc., priority 2013, dated 2019).

The compounds below were run against FASN enzyme (Homo sapiens, UniProt P49327) (assay: Enzymatic Assay for FASN Inhibitors). Settings: not given.
Assay type: biochemical
Procedure, shortened: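 40 nM FASN preincubated with compound 60 min at 25° C in HEPES pH 7.3 buffer with 0.04% Triton X-100. Then 20 μM acetyl-CoA, 60 μM malonyl-CoA and 100 μM NADPH added for 90 min, quenched with CPM thiol probe; fluorescence 360/530 nm, IC50 by four-parameter fit.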

Sequence of FASN enzyme (P49327 whole entry): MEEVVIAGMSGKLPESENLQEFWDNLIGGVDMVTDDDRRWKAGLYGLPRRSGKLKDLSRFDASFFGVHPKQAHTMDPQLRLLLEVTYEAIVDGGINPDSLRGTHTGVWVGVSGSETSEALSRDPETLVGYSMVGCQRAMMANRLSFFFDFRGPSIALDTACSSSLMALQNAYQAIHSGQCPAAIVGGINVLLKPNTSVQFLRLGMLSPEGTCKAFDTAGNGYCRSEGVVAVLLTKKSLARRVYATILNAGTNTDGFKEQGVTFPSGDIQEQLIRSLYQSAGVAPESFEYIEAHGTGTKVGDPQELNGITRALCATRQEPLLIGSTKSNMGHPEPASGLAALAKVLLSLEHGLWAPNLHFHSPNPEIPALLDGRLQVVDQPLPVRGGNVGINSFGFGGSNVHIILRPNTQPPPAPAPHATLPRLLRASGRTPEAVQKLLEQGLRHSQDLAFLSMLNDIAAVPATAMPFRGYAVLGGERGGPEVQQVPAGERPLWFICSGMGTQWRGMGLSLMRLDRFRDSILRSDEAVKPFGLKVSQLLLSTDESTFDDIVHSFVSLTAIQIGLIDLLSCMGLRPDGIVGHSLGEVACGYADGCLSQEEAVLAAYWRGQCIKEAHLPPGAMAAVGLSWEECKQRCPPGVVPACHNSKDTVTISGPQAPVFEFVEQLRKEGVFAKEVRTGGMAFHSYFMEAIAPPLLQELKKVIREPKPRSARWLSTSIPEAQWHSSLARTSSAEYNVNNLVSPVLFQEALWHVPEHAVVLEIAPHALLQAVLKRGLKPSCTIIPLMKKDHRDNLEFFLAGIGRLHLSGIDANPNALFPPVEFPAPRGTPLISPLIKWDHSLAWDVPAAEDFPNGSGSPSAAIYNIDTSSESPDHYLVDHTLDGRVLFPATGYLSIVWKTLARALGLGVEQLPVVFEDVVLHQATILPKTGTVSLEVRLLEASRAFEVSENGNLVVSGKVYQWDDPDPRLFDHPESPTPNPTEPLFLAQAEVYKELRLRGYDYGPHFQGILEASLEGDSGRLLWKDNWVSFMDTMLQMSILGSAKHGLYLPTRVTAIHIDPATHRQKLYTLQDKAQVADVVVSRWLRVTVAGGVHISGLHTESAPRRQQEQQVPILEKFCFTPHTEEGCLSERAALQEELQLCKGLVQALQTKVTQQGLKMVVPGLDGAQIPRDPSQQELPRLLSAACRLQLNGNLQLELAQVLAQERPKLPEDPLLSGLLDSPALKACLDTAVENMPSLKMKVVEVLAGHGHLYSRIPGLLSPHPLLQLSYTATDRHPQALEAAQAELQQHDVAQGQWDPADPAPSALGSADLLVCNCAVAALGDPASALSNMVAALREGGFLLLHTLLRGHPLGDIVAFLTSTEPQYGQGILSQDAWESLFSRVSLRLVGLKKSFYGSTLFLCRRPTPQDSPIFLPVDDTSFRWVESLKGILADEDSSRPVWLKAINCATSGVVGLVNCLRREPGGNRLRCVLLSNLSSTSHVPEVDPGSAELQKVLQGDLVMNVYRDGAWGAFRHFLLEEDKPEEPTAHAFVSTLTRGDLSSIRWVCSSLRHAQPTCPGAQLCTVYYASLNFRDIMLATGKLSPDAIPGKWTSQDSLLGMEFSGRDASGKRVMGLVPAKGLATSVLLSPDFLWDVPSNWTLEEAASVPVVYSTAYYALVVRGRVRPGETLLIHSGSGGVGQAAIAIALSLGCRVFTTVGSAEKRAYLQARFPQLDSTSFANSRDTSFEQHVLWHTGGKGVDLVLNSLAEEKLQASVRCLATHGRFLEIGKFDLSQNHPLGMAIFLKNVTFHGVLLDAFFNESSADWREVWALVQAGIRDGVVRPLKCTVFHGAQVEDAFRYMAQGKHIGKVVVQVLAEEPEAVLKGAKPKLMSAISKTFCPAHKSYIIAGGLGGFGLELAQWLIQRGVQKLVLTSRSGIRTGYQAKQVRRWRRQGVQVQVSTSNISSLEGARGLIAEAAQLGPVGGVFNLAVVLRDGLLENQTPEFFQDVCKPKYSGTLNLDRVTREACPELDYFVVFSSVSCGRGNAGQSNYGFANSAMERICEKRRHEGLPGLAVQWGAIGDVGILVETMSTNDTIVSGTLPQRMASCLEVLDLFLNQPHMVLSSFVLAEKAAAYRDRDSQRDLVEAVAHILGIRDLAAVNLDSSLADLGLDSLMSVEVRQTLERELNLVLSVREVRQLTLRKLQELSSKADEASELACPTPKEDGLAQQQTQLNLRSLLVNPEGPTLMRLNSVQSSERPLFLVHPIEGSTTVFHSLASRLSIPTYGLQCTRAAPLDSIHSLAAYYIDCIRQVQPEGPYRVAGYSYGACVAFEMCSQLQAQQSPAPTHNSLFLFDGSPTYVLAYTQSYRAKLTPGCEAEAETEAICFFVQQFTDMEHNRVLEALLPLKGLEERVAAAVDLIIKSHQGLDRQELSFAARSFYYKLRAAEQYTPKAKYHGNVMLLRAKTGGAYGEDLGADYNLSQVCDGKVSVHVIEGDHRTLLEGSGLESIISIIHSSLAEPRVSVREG

Question: With `Nc1n[nH]c2cc(-c3ccc(C(=O)N4CCN(C(=O)C5(O)CC5)CC4)cc3)ccc12` [1-{4-[4-(3-amino-1H-indazol-6-yl)benzoyl]piperazine-1-carbonyl}cyclopropan-1-ol] as the compound, how does the IC50 read?
Answer: < 500 nM

Question: `Cc1c2ccccc2nn1-c1ccc(C(=O)N2CCN(C(=O)C3(O)CC3)CC2)cc1` [1-{4-[4-(3-methyl-2H-indazol-2-yl)benzoyl]piperazine-1-carbonyl}cyclopropan-1-ol] was tested. Which IC50 did it give?
Answer: < 500 nM

Question: `Cn1ncc2ccc(-c3ccc(C(=O)N4CCN(C(=O)C5(O)CC5)CC4)c(Cl)c3)cc21` [1-{4-[2-chloro-4-(1-methyl-1H-indazol-6-yl)benzoyl]piperazine-1-carbonyl}cyclopropan-1-ol] was tested. Which IC50 did it give?
Answer: < 500 nM

Question: For `Cn1cnc2cc(-c3ccc(C(=O)N4CCN(C(=O)C5(CO)CC5)CC4)cc3)ccc21` [(1-{4-[4-(1-methyl-1H-1,3-benzodiazol-5-yl)benzoyl]piperazine-1-carbonyl}cyclopropyl)methanol], which IC50 is on record?
Answer: < 500 nM

Question: Which IC50 does the source give for `O=C(Nc1cccc(-c2ccc(C(=O)N3CCN(C(=O)C4(O)CC4)CC3)cc2)c1)C1CC1` here?
Answer: < 500 nM

Question: For `Cn1cnc2cc(-c3ccc(C(=O)N4CCN(C(=O)C5CCO5)CC4)cc3)ccc21` (centres unmarked) [1-methyl-5-{4-[4-(oxetane-2-carbonyl)piperazine-1-carbonyl]phenyl}-1H-1,3-benzodiazole], which IC50 is on record?
Answer: < 500 nM

Question: For `Cc1nc2cc(-c3ccc(C(=O)N4CCN(C(=O)C5(O)CC5)CC4)cc3)ccc2[nH]1` [1-{4-[4-(2-methyl-1H-1,3-benzodiazol-5-yl)benzoyl]piperazine-1-carbonyl}cyclopropan-1-ol], which IC50 is on record?
Answer: < 500 nM

Question: With `O=C(c1ccc(-c2ccc(Cl)cc2F)cc1F)N1CCN(C(=O)C2(O)CC2)CC1` [1-{4-[4-(4-chloro-2-fluorophenyl)-2-fluorobenzoyl]piperazine-1-carbonyl}cyclopropan-1-ol] as the compound, how does the IC50 read?
Answer: < 500 nM

Question: `N#CCc1cccc(-c2ccc(C(=O)N3CCN(C(=O)C4(O)CC4)CC3)cc2)c1` [2-(3-{4-[4-(1-hydroxycyclopropanecarbonyl)piperazine-1-carbonyl]phenyl}phenyl)acetonitrile] was tested. Which IC50 did it give?
Answer: < 500 nM

Question: Which IC50 does the source give for `COc1ccc2c(c1)CN(c1ccc(C(=O)N3CCN(C(=O)C4(O)CC4)CC3)cc1)CC2` [1-{4-[4-(7-methoxy-1,2,3,4-tetrahydroisoquinolin-2-yl)benzoyl]piperazine-1-carbonyl}cyclopropan-1-ol] here?
Answer: < 500 nM

Question: How did the IC50 turn out when `O=C(c1ccc(-c2nc3ccccn3c2Cl)c(Cl)c1)N1CCN(C(=O)C2(O)CC2)CC1` [1-[4-(3-chloro-4-{3-chloroimidazo[1,2-a]pyridin-2-yl}benzoyl)piperazine-1-carbonyl]cyclopropan-1-ol] was run?
Answer: < 500 nM

Question: For `C[C@@H]1CN(C(=O)c2ccc(-c3ccc(Cl)cc3F)cc2)C[C@H](C)N1C(=O)C1(O)CC1` [1-[(2S,6R)-4-[4-(4-chloro-2-fluorophenyl)benzoyl]-2,6-dimethylpiperazine-1-carbonyl]cyclopropan-1-ol], which IC50 is on record?
Answer: < 500 nM

Question: Which IC50 does the source give for `O=C(c1ccc(-c2cccc(NS(=O)(=O)CC3CC3)c2)cc1)N1CCN(C(=O)C2(O)CC2)CC1` [1-cyclopropyl-N-(3-{4-[4-(1-hydroxycyclopropanecarbonyl)piperazine-1-carbonyl]phenyl}phenyl)methanesulfonamide] here?
Answer: < 500 nM

Question: With `N#CC1(c2cccc(-c3ccc(C(=O)N4CCN(C(=O)C5(O)CC5)CC4)c(F)c3)c2)CC1` [1-(3-{3-fluoro-4-[4-(1-hydroxycyclopropanecarbonyl)piperazine-1-carbonyl]phenyl}phenyl)cyclopropane-1-carbonitrile] as the compound, how does the IC50 read?
Answer: < 500 nM

Question: With `N#CC1(c2cccc(-c3ccc(C(=O)N4CCN(C(=O)C5(O)CC5)CC4)cc3)c2)CCC1` [1-(3-{4-[4-(1-hydroxycyclopropanecarbonyl)piperazine-1-carbonyl]phenyl}phenyl)cyclobutane-1-carbonitrile] as the compound, how does the IC50 read?
Answer: < 500 nM

Question: `Cn1nc2ccc(-c3ccc(C(=O)N4CCN(C(=O)C5(O)CC5)CC4)cc3)cc2n1` was tested. Which IC50 did it give?
Answer: < 500 nM

Question: With `CC1Cc2ccccc2CN1c1ccc(C(=O)N2CCN(C(=O)C3(O)CC3)CC2)cc1` (centres unmarked) [1-{4-[4-(3-methyl-1,2,3,4-tetrahydroisoquinolin-2-yl)benzoyl]piperazine-1-carbonyl}cyclopropan-1-ol] as the compound, how does the IC50 read?
Answer: < 500 nM

Question: For `O=C(Nc1cccc(-c2ccc(C(=O)N3CCN(C(=O)C4(O)CC4)CC3)cc2)c1)C1CCCC1` [N-(3-{4-[4-(1-hydroxycyclopropanecarbonyl)piperazine-1-carbonyl]phenyl}phenyl)cyclopentanecarboxamide], which IC50 is on record?
Answer: < 500 nM

Question: With `O=C(c1ccc(-c2nc3cc(Cl)ccc3[nH]2)cc1)N1CCN(C(=O)C2(O)CC2)CC1` [1-[(4-{[4-(5-chloro-1H-1,3-benzodiazol-2-yl)phenyl]carbonyl}piperazin-1-yl)carbonyl]cyclopropan-1-ol] as the compound, how does the IC50 read?
Answer: < 500 nM

Question: How did the IC50 turn out when `Cc1nn(C)c2ccc(-c3ccc(C(=O)N4CCN(C(=O)C5(O)CC5)CC4)c(F)c3)cc12` [1-{4-[4-(1,3-dimethyl-1H-indazol-5-yl)-2-fluorobenzoyl]piperazine-1-carbonyl}cyclopropan-1-ol] was run?
Answer: < 500 nM

Question: Which IC50 does the source give for `Cn1cc2ccc(-c3cc(F)c(C(=O)N4CCN(C(=O)C5(N)CC5)CC4)c(F)c3)cc2n1` [1-{4-[2,6-difluoro-4-(2-methyl-2H-indazol-6-yl)benzoyl]piperazine-1-carbonyl}cyclopropan-1-amine] here?
Answer: < 500 nM

Question: `O=C(c1ccc(-c2ccc3ncn(CCO)c3c2)cc1)N1CCN(C(=O)C2(O)CC2)CC1` [1-(4-{4-[1-(2-hydroxyethyl)-1H-1,3-benzodiazol-6-yl]benzoyl}piperazine-1-carbonyl)cyclopropan-1-ol] was tested. Which IC50 did it give?
Answer: < 500 nM

Question: Which IC50 does the source give for `O=C(c1ccc(-c2cc(F)c3[nH]ccc3c2)cc1)N1CCN(C(=O)C2(O)CC2)CC1` here?
Answer: < 500 nM

Question: For `C[C@@H]1CN(C(=O)C2(O)CC2)C[C@H](C)N1C(=O)c1ccc(-c2ccc3c(c2)ncn3C)cc1`, which IC50 is on record?
Answer: < 500 nM

Same assay, conditions: FASN enzymatic assay; Table 2-2

Question: How did the IC50 turn out when `O=C(c1ccc(-c2cc(F)cc(C(F)(F)F)c2)cc1)N1CCN(C(=O)C2(O)CC2)CC1` [1-{[4-({4-[3-fluoro-5-(trifluoromethyl)phenyl]phenyl}carbonyl)piperazin-1-yl]carbonyl}cyclopropan-1-ol] was run?
Answer: 500 to 5000 nM

Question: For `O=C(c1ccc(-c2nc3c(Cl)cccc3[nH]2)cc1)N1CCN(C(=O)C2(O)CC2)CC1` [1-[(4-{[4-(4-chloro-1H-1,3-benzodiazol-2-yl)phenyl]carbonyl}piperazin-1-yl)carbonyl]cyclopropan-1-ol], which IC50 is on record?
Answer: 500 to 5000 nM

Question: Which IC50 does the source give for `O=C(c1ccc2nc(-c3ccc(F)cc3)sc2c1)N1CCN(C(=O)C2(O)CC2)CC1` [1-[(4-{[2-(4-fluorophenyl)-1,3-benzothiazol-6-yl]carbonyl}piperazin-1-yl)carbonyl]cyclopropan-1-ol] here?
Answer: 500 to 5000 nM

Question: With `COc1cc(-c2ccc3ncccc3c2)ccc1C(=O)N1CCN(C(=O)C2(O)CC2)CC1` [1-[(4-{[2-methoxy-4-(quinolin-6-yl)phenyl]carbonyl}piperazin-1-yl)carbonyl]cyclopropan-1-ol] as the compound, how does the IC50 read?
Answer: 500 to 5000 nM

Question: How did the IC50 turn out when `O=C(c1ncc(-c2ccc(Cl)cc2F)cn1)N1CCN(C(=O)C2(O)CC2)CC1` [1-[(4-{[5-(4-chloro-2-fluorophenyl)pyrimidin-2-yl]carbonyl}piperazin-1-yl)carbonyl]cyclopropan-1-ol] was run?
Answer: 500 to 5000 nM

Question: How did the IC50 turn out when `O=C(c1ccc(-c2nc3cc(F)ccc3[nH]2)cc1)N1CCN(C(=O)C2(O)CC2)CC1` [1-[(4-{[4-(5-fluoro-1H-1,3-benzodiazol-2-yl)phenyl]carbonyl}piperazin-1-yl)carbonyl]cyclopropan-1-ol] was run?
Answer: 500 to 5000 nM

Question: With `COc1cccc(-c2ccc(C(=O)N3CCN(C(=O)C4(O)CC4)CC3)cc2)c1F` [1-[(4-{[4-(2-fluoro-3-methoxyphenyl)phenyl]carbonyl}piperazin-1-yl)carbonyl]cyclopropan-1-ol] as the compound, how does the IC50 read?
Answer: 500 to 5000 nM

Question: `COc1ccc2nc(-c3ccc(C(=O)N4CCN(C(=O)C5(O)CC5)CC4)cc3)cn2c1` [1-({4-[(4-{6-methoxyimidazo[1,2-a]pyridin-2-yl}phenyl)carbonyl]piperazin-1-yl}carbonyl)cyclopropan-1-ol] was tested. Which IC50 did it give?
Answer: 500 to 5000 nM

Question: Which IC50 does the source give for `Cn1c(-c2ccc(C(=O)N3CCN(C(=O)C4(O)CC4)CC3)cc2)nc2ccccc21` [1-[(4-{[4-(1-methyl-1H-1,3-benzodiazol-2-yl)phenyl]carbonyl}piperazin-1-yl)carbonyl]cyclopropan-1-ol] here?
Answer: 500 to 5000 nM

Question: How did the IC50 turn out when `COc1ccc2cc(-c3ccc(C(=O)N4CCN(C(=O)C5(O)CC5)CC4)nc3)ccc2n1` [1-[(4-{[5-(2-methoxyquinolin-6-yl)pyridin-2-yl]carbonyl}piperazin-1-yl)carbonyl]cyclopropan-1-ol] was run?
Answer: 500 to 5000 nM

Same assay, conditions: FASN enzymatic assay; Table 2-3

Question: Which IC50 does the source give for `O=C(c1ccc(-c2cn3cc(F)ccc3n2)cc1)N1CCN(C(=O)C2(O)CC2)CC1` [1-({4-[(4-{6-fluoroimidazo[1,2-a]pyridin-2-yl}phenyl)carbonyl]piperazin-1-yl}carbonyl)cyclopropan-1-ol] here?
Answer: ≥ 5000 nM

Question: With `COc1ccc(-c2ccc(C(=O)N3CCN(C(=O)C4(O)CC4)CC3)cc2)c(OC)n1` [1-[(4-{[4-(2,6-dimethoxypyridin-3-yl)phenyl]carbonyl}piperazin-1-yl)carbonyl]cyclopropan-1-ol] as the compound, how does the IC50 read?
Answer: ≥ 5000 nM

Question: For `O=C(c1ccc(-c2ccc(C(F)(F)F)nc2)cc1)N1CCN(C(=O)C2(O)CC2)CC1` [1-{[4-({4-[6-(trifluoromethyl)pyridin-3-yl]phenyl}carbonyl)piperazin-1-yl]carbonyl}cyclopropan-1-ol], which IC50 is on record?
Answer: ≥ 5000 nM

Question: How did the IC50 turn out when `CC(C)Oc1cccc(-c2ccc(C(=O)N3CCN(C(=O)C4(O)CC4)CC3)cc2)c1F` [1-{[4-({4-[2-fluoro-3-(propan-2-yloxy)phenyl]phenyl}carbonyl)piperazin-1-yl]carbonyl}cyclopropan-1-ol] was run?
Answer: ≥ 5000 nM

Question: `O=C(c1cn2cc(-c3ccccc3)ccc2n1)N1CCN(C(=O)C2(O)CC2)CC1` [1-{[4-({6-phenylimidazo[1,2-a]pyridin-2-yl}carbonyl)piperazin-1-yl]carbonyl}cyclopropan-1-ol] was tested. Which IC50 did it give?
Answer: ≥ 5000 nM

Question: For `COc1cc(F)c(F)cc1-c1ccc(C(=O)N2CCN(C(=O)C3(O)CC3)CC2)cc1` [1-[(4-{[4-(4,5-difluoro-2-methoxyphenyl)phenyl]carbonyl}piperazin-1-yl)carbonyl]cyclopropan-1-ol], which IC50 is on record?
Answer: ≥ 5000 nM

Question: Which IC50 does the source give for `O=C(c1ccc(-c2ccccc2)cc1)N1CCN(C(=O)C2(O)CCCC2)CC1` [1-({4-[(4-phenylphenyl)carbonyl]piperazin-1-yl}carbonyl)cyclopentan-1-ol] here?
Answer: ≥ 5000 nM
